Experimental data as given in patent publication US20020031509A1, “Pharmaceutical composition and method for its manufacture” (priority 1999, published 2002).

Test system: P. aeruginosa
Assay: Experiment 2 screening for antibiotic effect, P. aeruginosa
Format: cell-based, Pseudomonas aeruginosa
Conditions: 24 h post inoculation
Method: The second experiment consisted of a screening for antibiotic effect of individual and combined substances. The materials that were used were:
The method involved the use of a microtiter (ELISA) plate (12×8 wells, i.e 96 wells in total, obtained from NUNC) with serial dilutions of venoms and bacteria at two concentrations.
The incubation time was 24 hours. OD was monitored at 650 nm every hour the first 7-8 hours, and then at 20 hours and 24 hours post inoculation. Each well was given 200 μl of diluted venom plus bacteria.
Three-dimensional diagrams shown as FIG. 3 to 11 summarize the above results. Observe that in each diagram serge 1 (Z axis) is substance BF, serie 2 is NK, 3 is OH, 4 is BA, 5 is TA, 6 is OH+BA, 7 is OH+TA and serie 8 is reference antibiotic. On the X-axis 1-5 is concentration of substance: 500, 250, 125, 62.5 och 31.2 mikrog/ml for substances (N.B. OH+BA and OH+TA have the double concentrations, i.e. the concentration is 1000, 500, 250, 125 and 62.5 ), and 100, 50, 25, 12.5, 6.25 mikrog/ml for reference antibiotic. The name on the diagrams is the tested bacteria strain (initials only given) and time is 7 hours after incubation start at which the substance was added. The combined OH+BA and OH+TA were obtained by mixing the single venoms in the same proportions.

Structure (SMILES): NC[C@H]1O[C@H](O[C@H]2[C@H](O)[C@@H](O[C@H]3O[C@H](CO)[C@@H](O)[C@H](N)[C@H]3O)[C@H](N)C[C@@H]2N)[C@H](O)[C@@H](O)[C@@H]1O [Kanamycin]
- antibacterial effect: no effect
